# Reference: article PMC4279406, “Simultaneous targeting of PI3Kδ and a PI3Kδ-dependent MEK1/2-Erk1/2 pathway for therapy in pediatric B-cell acute lymphoblastic leukemia” (Oncotarget, 2014)
# Tests used:
# [1] = system: PDK1 and MEK1/2 association in Raji cells; assay: PDK1 immunoprecipitation, association with MEK1/2; type: cell-based, human; settings: 1 μM, 1 h, anti-PDK1 immunoprecipitation
# Protocol: (§1) Figure 5 Inhibition of Erk1/2 phosphorylation by X-370 contributed to its antiproliferative activity (A-C) X-370 inhibited Erk1/2 phosphorylation via PI3K-PDK1-MEK1/2 cascade but not the PI3K-Gab1 positive feedback loop. (A) Raji and SU-DHL-6 cells were exposed to 1 μM X370 for 3 h and protein fraction from cellular membrane was separated using Native Membrane Protein Extraction Kit and probed. WCL: whole cell lysate. (B) Inhibition of PDK1 or MEK1/2 abrogated Erk1/2 phosphorylation. Cells were treated with pharmacological inhibitors of Raf (AZ 628, PLX4032), MEK1/2 (AZD6244), p90RSK (BI-D1870), PI3Kδ (X-370), PDK1 (BX-912), Akt (MK-2206), mTOR (AZD8055) or mTORC1 (Rapamycin) respectively and indicated proteins were detected. (C) X-370 disrupted the association between PDK1 and MEK1/2. Raji cells were treated with 1 μM X370 for 1 h and cell lysates were immunoprecipitated with anti-PDK1 antibody and indicated proteins were detected. WCL: whole cell lysate. […] (E) Raji and Raji MEK DD cells were treated with X-370 for 72 h and cell proliferation was detected by CCK-8 assay. (F) Raji MEK DD cells were treated with X-370 and AZD6244 and cell proliferation was detected by CCK-8 assay. Data were show as mean ± SD of three independent experiments. *: p < 0.05 determined by t-tests at each data point. […]
# [2] = target: T1, TrkA (Homo sapiens, UniProt P04629); assay: KinaseProfiler protein kinase activity; type: biochemical; settings: 10 μM X-370
# T1 construct: purchased Millipore KinaseProfiler
# T1 sequence (P04629 33-796): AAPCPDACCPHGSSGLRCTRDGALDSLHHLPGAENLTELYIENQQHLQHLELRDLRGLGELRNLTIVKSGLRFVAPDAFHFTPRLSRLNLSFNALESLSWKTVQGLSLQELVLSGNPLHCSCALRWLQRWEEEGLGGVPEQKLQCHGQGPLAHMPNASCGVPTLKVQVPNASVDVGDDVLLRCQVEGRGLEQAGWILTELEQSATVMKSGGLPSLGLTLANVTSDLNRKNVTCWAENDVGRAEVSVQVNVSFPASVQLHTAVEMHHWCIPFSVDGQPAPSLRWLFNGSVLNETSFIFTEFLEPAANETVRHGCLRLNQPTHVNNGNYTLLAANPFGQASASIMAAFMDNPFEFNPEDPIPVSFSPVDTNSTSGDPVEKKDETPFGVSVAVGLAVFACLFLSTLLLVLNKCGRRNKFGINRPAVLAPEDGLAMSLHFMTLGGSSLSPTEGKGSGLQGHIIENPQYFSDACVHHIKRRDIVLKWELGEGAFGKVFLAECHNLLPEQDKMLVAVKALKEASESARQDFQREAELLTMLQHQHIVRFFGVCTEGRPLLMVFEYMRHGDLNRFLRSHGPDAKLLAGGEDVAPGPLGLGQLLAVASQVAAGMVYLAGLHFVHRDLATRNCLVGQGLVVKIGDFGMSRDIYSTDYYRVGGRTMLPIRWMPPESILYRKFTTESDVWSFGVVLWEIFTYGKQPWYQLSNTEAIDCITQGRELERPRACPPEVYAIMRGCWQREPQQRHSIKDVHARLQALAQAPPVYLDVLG
# Protocol: (§2) In vitro kinase profile assays were analyzed by the Kinase Profiler Service (Millipore, United Kingdom) following its guidelines. A GST-tagged human p110δ and regulatory full-length p85 were co-expressed in insect cell Sf9. Recombinant protein was extracted by affinity purification. The PI3K kinase activity was determined in the increasing concentration of ATP and X-370 with PI3-Kinase HTRF™ Assay kit (Millipore) as described previously. […]
# (§3) Table S1: Inhibitory activity of X-370 against protein kinases
# (§4) kinome at 10 μM. The relative kianse activity left in the presence of 10 μM were shown (Mi llipore
# (§5) Kinase activity (% of control) Kinase activity (% of control) Kinase activity (% of control)
# (§6) CDK1/cyclinB 97 Lck activated 89 Ret 125
# [3] = target: T2, Abl (Homo sapiens, UniProt P00519); assay: KinaseProfiler protein kinase activity; type: biochemical; settings: 10 μM X-370
# T2 construct: purchased Millipore KinaseProfiler
# Protocol: as §2, §3, §4, §5, §6
# [4] = target: T3, PKA (Homo sapiens, UniProt P17612); assay: KinaseProfiler protein kinase activity; type: biochemical; settings: 10 μM X-370
# T3 construct: purchased Millipore KinaseProfiler
# Protocol: as §2, §3, §4, §5, §6
# [5] = target: T4, BTK (Homo sapiens, UniProt Q06187); assay: KinaseProfiler protein kinase activity; type: biochemical; settings: 10 μM X-370
# T4 construct: purchased Millipore KinaseProfiler
# T4 sequence (Q06187 whole entry): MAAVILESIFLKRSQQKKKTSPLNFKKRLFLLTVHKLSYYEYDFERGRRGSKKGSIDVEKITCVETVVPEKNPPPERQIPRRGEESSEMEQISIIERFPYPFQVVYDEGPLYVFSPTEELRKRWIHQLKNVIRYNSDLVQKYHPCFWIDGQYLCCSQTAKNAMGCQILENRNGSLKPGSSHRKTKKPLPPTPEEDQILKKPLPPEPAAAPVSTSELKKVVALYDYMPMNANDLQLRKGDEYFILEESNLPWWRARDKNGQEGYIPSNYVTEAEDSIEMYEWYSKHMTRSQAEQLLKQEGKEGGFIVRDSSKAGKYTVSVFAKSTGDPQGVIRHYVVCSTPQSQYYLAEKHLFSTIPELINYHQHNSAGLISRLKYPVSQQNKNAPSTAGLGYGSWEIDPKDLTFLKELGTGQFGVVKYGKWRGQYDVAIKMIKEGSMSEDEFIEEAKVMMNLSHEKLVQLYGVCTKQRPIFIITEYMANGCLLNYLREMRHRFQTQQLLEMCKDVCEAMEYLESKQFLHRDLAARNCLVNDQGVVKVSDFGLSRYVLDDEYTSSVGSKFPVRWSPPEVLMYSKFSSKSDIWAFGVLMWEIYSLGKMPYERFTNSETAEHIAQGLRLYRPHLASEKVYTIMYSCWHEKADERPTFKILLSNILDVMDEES
# Protocol: as §2, §3, §4, §5, §6
# [6] = target: T5, Aurora-A (Homo sapiens, UniProt O14965); assay: KinaseProfiler protein kinase activity; type: biochemical; settings: 10 μM X-370
# T5 construct: purchased Millipore KinaseProfiler
# T5 sequence (O14965 whole entry): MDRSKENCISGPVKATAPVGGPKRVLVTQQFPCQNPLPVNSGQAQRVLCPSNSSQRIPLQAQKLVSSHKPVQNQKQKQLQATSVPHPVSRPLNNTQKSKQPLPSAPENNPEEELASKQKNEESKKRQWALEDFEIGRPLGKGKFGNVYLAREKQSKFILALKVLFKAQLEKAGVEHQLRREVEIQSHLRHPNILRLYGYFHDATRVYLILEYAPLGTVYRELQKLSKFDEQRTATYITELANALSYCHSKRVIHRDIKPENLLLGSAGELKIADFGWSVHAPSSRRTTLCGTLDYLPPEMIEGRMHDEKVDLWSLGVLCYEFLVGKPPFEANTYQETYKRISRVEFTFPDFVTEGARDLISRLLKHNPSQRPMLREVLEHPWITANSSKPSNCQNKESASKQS
# Protocol: as §2, §3, §4, §5, §6
# [7] = target: T6, Ret (Homo sapiens, UniProt P07949); assay: KinaseProfiler protein kinase activity; type: biochemical; settings: 10 μM X-370
# T6 construct: purchased Millipore KinaseProfiler
# Protocol: as §2, §3, §4, §5, §6
# [8] = target: T7, IRAK1 (Homo sapiens, UniProt P51617); assay: KinaseProfiler protein kinase activity; type: biochemical; settings: 10 μM X-370
# T7 construct: purchased Millipore KinaseProfiler
# T7 sequence (P51617 whole entry): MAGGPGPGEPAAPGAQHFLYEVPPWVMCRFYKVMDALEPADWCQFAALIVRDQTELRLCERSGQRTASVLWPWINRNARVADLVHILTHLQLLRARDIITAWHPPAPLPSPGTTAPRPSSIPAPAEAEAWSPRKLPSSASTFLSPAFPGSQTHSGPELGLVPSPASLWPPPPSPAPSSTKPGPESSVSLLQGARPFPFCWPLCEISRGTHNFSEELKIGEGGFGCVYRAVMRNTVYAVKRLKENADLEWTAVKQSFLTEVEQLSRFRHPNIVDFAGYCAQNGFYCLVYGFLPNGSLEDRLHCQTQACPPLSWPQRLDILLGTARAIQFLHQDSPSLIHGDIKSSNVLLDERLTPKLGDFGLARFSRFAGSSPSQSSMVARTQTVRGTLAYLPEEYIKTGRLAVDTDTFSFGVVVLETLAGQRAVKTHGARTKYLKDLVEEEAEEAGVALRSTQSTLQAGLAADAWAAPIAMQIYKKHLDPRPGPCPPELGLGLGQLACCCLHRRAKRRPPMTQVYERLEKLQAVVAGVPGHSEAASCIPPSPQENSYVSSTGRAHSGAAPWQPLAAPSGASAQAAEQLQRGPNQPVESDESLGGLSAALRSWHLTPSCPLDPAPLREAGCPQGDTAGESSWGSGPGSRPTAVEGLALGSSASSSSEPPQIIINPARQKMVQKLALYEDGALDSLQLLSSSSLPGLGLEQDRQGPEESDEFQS
# Protocol: as §2, §3, §4, §5, §6
# [9] = target: T8, mTOR/FKBP12 (Homo sapiens, UniProt P42345); assay: KinaseProfiler protein kinase activity; type: biochemical; settings: 10 μM X-370
# T8 construct: purchased Millipore KinaseProfiler
# Protocol: as §2, §3, §4, §5, §6
# [10] = target: T9, FAK (Homo sapiens, UniProt Q05397); assay: KinaseProfiler protein kinase activity; type: biochemical; settings: 10 μM X-370
# T9 construct: purchased Millipore KinaseProfiler
# Protocol: as §2, §3, §4, §5, §6
# [11] = target: T10, PDK1 (Homo sapiens, UniProt O15530); assay: KinaseProfiler protein kinase activity; type: biochemical; settings: 10 μM X-370
# T10 construct: purchased Millipore KinaseProfiler
# T10 sequence (O15530 whole entry): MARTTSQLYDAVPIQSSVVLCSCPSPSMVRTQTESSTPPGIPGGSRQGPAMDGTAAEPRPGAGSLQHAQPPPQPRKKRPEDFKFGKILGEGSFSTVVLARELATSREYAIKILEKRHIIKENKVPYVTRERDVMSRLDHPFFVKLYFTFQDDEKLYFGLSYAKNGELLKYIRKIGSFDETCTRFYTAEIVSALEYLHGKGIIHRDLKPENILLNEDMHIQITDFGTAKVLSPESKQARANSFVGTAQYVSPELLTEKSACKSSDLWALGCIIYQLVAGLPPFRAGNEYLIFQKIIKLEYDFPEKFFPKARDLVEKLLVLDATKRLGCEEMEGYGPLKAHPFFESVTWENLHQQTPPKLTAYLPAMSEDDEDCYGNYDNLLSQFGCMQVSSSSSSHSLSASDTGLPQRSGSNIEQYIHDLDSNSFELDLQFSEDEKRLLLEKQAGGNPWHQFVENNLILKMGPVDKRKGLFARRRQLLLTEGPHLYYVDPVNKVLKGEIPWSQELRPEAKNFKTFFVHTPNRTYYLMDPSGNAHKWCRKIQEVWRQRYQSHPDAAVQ
# Protocol: as §2, §3, §4, §5, §6
# [12] = target: T11, PAK2 (Homo sapiens, UniProt Q13177); assay: KinaseProfiler protein kinase activity; type: biochemical; settings: 10 μM X-370
# T11 construct: purchased Millipore KinaseProfiler
# T11 sequence (Q13177 whole entry): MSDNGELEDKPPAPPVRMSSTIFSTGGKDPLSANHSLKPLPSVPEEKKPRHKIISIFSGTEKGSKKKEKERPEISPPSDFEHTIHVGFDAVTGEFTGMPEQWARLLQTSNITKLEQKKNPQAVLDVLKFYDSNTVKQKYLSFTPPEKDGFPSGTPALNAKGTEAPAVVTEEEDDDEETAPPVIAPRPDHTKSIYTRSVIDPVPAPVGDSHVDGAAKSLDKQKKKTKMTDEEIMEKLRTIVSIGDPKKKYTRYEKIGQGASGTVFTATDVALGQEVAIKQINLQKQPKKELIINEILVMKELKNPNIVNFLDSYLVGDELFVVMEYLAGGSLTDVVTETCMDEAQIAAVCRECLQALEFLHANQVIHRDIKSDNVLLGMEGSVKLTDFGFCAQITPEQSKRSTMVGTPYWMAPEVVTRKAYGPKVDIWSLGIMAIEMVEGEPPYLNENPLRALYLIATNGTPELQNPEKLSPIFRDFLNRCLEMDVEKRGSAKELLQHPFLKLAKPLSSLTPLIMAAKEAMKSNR
# Protocol: as §2, §3, §4, §5, §6
# [13] = target: T12, Flt1 (Homo sapiens, UniProt P17948); assay: KinaseProfiler protein kinase activity; type: biochemical; settings: 10 μM X-370
# T12 construct: purchased Millipore KinaseProfiler
# Protocol: as §2, §3, §4, §5, §6
# [14] = target: T13, AMPK α1 (Homo sapiens, UniProt Q13131); assay: KinaseProfiler protein kinase activity; type: biochemical; settings: 10 μM X-370
# T13 construct: purchased Millipore KinaseProfiler
# Protocol: as §2, §3, §4, §5, §6
# [15] = system: CK1(y); assay: KinaseProfiler protein kinase activity; type: biochemical; settings: 10 μM X-370
# Protocol: as §2, §3, §4, §5, §6
# [16] = target: T14, Src(1-530) (Homo sapiens, UniProt P12931); assay: KinaseProfiler protein kinase activity; type: biochemical; settings: 10 μM X-370
# T14 construct: purchased Millipore KinaseProfiler
# T14 sequence (P12931 1-530 limits assumed): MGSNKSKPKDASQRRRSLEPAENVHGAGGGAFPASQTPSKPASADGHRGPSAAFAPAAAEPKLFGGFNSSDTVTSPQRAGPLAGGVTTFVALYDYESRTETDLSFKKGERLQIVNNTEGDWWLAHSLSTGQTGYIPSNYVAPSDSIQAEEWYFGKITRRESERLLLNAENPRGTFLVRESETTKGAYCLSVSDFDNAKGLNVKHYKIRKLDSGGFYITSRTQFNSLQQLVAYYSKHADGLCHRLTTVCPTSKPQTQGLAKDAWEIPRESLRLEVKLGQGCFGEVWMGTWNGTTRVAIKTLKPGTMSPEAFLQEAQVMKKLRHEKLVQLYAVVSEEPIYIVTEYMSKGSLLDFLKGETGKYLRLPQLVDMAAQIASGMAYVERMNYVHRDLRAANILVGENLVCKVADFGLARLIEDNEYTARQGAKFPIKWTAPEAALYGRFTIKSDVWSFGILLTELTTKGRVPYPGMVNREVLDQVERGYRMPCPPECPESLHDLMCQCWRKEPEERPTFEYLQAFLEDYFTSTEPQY
# Protocol: as §2, §3, §4, §5, §6
# [17] = target: T15, LKB1 (Homo sapiens, UniProt Q15831); assay: KinaseProfiler protein kinase activity; type: biochemical; settings: 10 μM X-370
# T15 construct: purchased Millipore KinaseProfiler
# Protocol: as §2, §3, §4, §5, §6
# [18] = target: T16, DYRK2 (Homo sapiens, UniProt Q92630); assay: KinaseProfiler protein kinase activity; type: biochemical; settings: 10 μM X-370
# T16 construct: purchased Millipore KinaseProfiler
# T16 sequence (Q92630 whole entry): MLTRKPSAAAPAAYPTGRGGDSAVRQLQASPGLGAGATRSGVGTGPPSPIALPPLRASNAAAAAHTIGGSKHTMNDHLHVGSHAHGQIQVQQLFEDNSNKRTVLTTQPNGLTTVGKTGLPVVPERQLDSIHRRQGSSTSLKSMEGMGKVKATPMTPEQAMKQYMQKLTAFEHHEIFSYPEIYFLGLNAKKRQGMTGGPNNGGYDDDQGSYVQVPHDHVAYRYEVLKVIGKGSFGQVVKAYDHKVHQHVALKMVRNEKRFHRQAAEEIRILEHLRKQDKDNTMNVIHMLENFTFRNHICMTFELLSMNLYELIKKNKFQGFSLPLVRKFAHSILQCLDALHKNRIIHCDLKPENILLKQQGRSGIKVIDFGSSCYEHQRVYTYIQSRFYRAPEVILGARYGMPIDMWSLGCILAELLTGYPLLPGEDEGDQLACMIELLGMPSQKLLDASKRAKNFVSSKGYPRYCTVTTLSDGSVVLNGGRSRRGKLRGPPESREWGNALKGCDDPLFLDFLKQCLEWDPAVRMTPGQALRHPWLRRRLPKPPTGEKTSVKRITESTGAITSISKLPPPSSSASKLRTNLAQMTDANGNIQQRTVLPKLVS
# Protocol: as §2, §3, §4, §5, §6
# [19] = system: Raji MEK DD cells; assay: Proliferation of Raji MEK DD cells (CCK-8); type: cell-based, human; settings: 72 h, CCK-8, compared with Raji
# Protocol: as §1, with “(C) X-370 disrupted the association between PDK1 and MEK1/2.” left out, “detected.” for “detected. WCL: whole cell lysate.”
# luciferase. Raji cells expressing MEK DD or luciferase were incubated with 1 μM AZD6244 or DMSO control respectively for 72 h, and then cell viability were assessed by CCK-8 reagent. […]
smiles,measurement,setting,value
O=C(N1CCCC1)N1CCC(n2cnc3c(-n4c(C(F)F)nc5ccccc54)nc(N4CCOCC4)nc32)CC1 [X-370],association between PDK1 and MEK1/2,[1],dissociation of MEK1/2 and PDK1
same,Kinase activity (% of control),[2],101 % of control
same,Kinase activity (% of control),[3],130 % of control
same,Kinase activity (% of control),[4],106 % of control
same,Kinase activity (% of control),[5],121 % of control
same,Kinase activity (% of control),[6],73 % of control
same,Kinase activity (% of control),[7],125 % of control
same,Kinase activity (% of control),[8],106 % of control
same,Kinase activity (% of control),[9],48 % of control
same,Kinase activity (% of control),[10],99 % of control
same,Kinase activity (% of control),[11],94 % of control
same,Kinase activity (% of control),[12],100 % of control
same,Kinase activity (% of control),[13],99 % of control
same,Kinase activity (% of control),[14],101 % of control
same,Kinase activity (% of control),[15],64 % of control
same,Kinase activity (% of control),[16],99 % of control
same,Kinase activity (% of control),[17],66 % of control
same,Kinase activity (% of control),[18],102 % of control
same,effect of MEK DD expression on inhibition of viability,[19],attenuated inhibition of viability
